Source: ChEMBL document CHEMBL1671705, “Investigations into the role of the Plasmodium falciparum SERCA (PfATP6) L263E mutation in artemisinin action and resistance” (Antimicrob Agents Chemother, 2010)

test system: Plasmodium falciparum; test: Antimalarial activity against Plasmodium falciparum 7G8 harboring pfATP6 L263 mutant assessed as inhibition of [3H]hypoxanthine incorporation; assay type: functional, organism-based

Row | SMILES | IC50 [nM]
1 | C[C@@H]1CC[C@H]2[C@@H](C)C(=O)O[C@@H]3O[C@@]4(C)CC[C@@H]1[C@]32OO4 [ARTEMISININ] | 20.7

test system: Plasmodium falciparum; test: Antimalarial activity against Plasmodium falciparum 7G8 harboring pfATP6 263E mutant assessed as inhibition of [3H]hypoxanthine incorporation; assay type: functional, organism-based

Row | SMILES | IC50 [nM]
2 | C[C@@H]1CC[C@H]2[C@@H](C)C(=O)O[C@@H]3O[C@@]4(C)CC[C@@H]1[C@]32OO4 [ARTEMISININ] | 22.3

test system: Plasmodium falciparum; test: Antimalarial activity against Plasmodium falciparum D10 harboring pfATP6 263E mutant assessed as inhibition of [3H]hypoxanthine incorporation; assay type: functional, organism-based

Row | SMILES | IC50 [nM]
3 | C[C@@H]1CC[C@H]2[C@@H](C)C(=O)O[C@@H]3O[C@@]4(C)CC[C@@H]1[C@]32OO4 [ARTEMISININ] | 51.6

test system: Plasmodium falciparum; test: Antimalarial activity against Plasmodium falciparum 7G8 clone M1 harboring pfATP6 L263 mutant assessed as inhibition of [3H]hypoxanthine incorporation; assay type: functional, organism-based

Row | SMILES | IC50 [nM]
4 | C[C@@H]1CC[C@H]2[C@@H](C)C(=O)O[C@@H]3O[C@@]4(C)CC[C@@H]1[C@]32OO4 [ARTEMISININ] | 22.3

test system: Plasmodium falciparum; test: Antimalarial activity against Plasmodium falciparum D10 clone 2 assessed as inhibition of [3H]hypoxanthine incorporation; assay type: functional, organism-based

Row | SMILES | IC50 [nM]
5 | C[C@@H]1CC[C@H]2[C@@H](C)C(=O)O[C@@H]3O[C@@]4(C)CC[C@@H]1[C@]32OO4 [ARTEMISININ] | 34.3

test system: Plasmodium falciparum; test: Antimalarial activity against Plasmodium falciparum D10 clone 1 assessed as inhibition of [3H]hypoxanthine incorporation; assay type: functional, organism-based

Row | SMILES | IC50 [nM]
6 | C[C@@H]1CC[C@H]2[C@@H](C)C(=O)O[C@@H]3O[C@@]4(C)CC[C@@H]1[C@]32OO4 [ARTEMISININ] | 47.6

test system: Plasmodium falciparum; test: Antimalarial activity against Plasmodium falciparum 7G8 clone 1 assessed as inhibition of [3H]hypoxanthine incorporation; assay type: functional, organism-based

Row | SMILES | IC50 [nM]
7 | C[C@@H]1CC[C@H]2[C@@H](C)C(=O)O[C@@H]3O[C@@]4(C)CC[C@@H]1[C@]32OO4 [ARTEMISININ] | 20.6

test system: Plasmodium falciparum; test: Antimalarial activity against Plasmodium falciparum D10 clone 1 harboring pfATP6 L263 mutant assessed as inhibition of [3H]hypoxanthine incorporation; assay type: functional, organism-based

Row | SMILES | IC50 [nM]
8 | C[C@@H]1CC[C@H]2[C@@H](C)C(=O)O[C@@H]3O[C@@]4(C)CC[C@@H]1[C@]32OO4 [ARTEMISININ] | 42.8

test system: Plasmodium falciparum; test: Antimalarial activity against Plasmodium falciparum 7G8 clone 1 harboring pfATP6 L263 mutant assessed as inhibition of [3H]hypoxanthine incorporation; assay type: functional, organism-based

Row | SMILES | IC50 [nM]
9 | C[C@@H]1CC[C@H]2[C@@H](C)C(=O)O[C@@H]3O[C@@]4(C)CC[C@@H]1[C@]32OO4 [ARTEMISININ] | 20.7

test system: Plasmodium falciparum; test: Antimalarial activity against Plasmodium falciparum 7G8 clone 2 assessed as inhibition of [3H]hypoxanthine incorporation; assay type: functional, organism-based

Row | SMILES | IC50 [nM]
10 | C[C@@H]1CC[C@H]2[C@@H](C)C(=O)O[C@@H]3O[C@@]4(C)CC[C@@H]1[C@]32OO4 [ARTEMISININ] | 20.9

test system: Plasmodium falciparum; test: Antimalarial activity against Plasmodium falciparum 7G8 clone M2 assessed as inhibition of [3H]hypoxanthine incorporation; assay type: functional, organism-based

Row | SMILES | IC50 [nM]
11 | C[C@@H]1CC[C@H]2[C@@H](C)C(=O)O[C@@H]3O[C@@]4(C)CC[C@@H]1[C@]32OO4 [ARTEMISININ] | 19.7

test system: Plasmodium falciparum; test: Antimalarial activity against Plasmodium falciparum 7G8 clone M4 assessed as inhibition of [3H]hypoxanthine incorporation; assay type: functional, organism-based

Row | SMILES | IC50 [nM]
12 | C[C@@H]1CC[C@H]2[C@@H](C)C(=O)O[C@@H]3O[C@@]4(C)CC[C@@H]1[C@]32OO4 [ARTEMISININ] | 25.3

test system: Plasmodium falciparum; test: Antimalarial activity against Plasmodium falciparum 7G8 clone M3 assessed as inhibition of [3H]hypoxanthine incorporation; assay type: functional, organism-based

Row | SMILES | IC50 [nM]
13 | C[C@@H]1CC[C@H]2[C@@H](C)C(=O)O[C@@H]3O[C@@]4(C)CC[C@@H]1[C@]32OO4 [ARTEMISININ] | 20.5

test system: Plasmodium falciparum; test: Antimalarial activity against Plasmodium falciparum D10 harboring pfATP6 L263 mutant assessed as inhibition of [3H]hypoxanthine incorporation; assay type: functional, organism-based

Row | SMILES | IC50 [nM]
14 | C[C@@H]1CC[C@H]2[C@@H](C)C(=O)O[C@@H]3O[C@@]4(C)CC[C@@H]1[C@]32OO4 [ARTEMISININ] | 42.8

test system: Plasmodium falciparum; test: Antimalarial activity against Plasmodium falciparum D10 clone M2 assessed as inhibition of [3H]hypoxanthine incorporation; assay type: functional, organism-based

Row | SMILES | IC50 [nM]
15 | C[C@@H]1CC[C@H]2[C@@H](C)C(=O)O[C@@H]3O[C@@]4(C)CC[C@@H]1[C@]32OO4 [ARTEMISININ] | 55.8

test system: Plasmodium falciparum; test: Antimalarial activity against Plasmodium falciparum D10 clone M1 assessed as inhibition of [3H]hypoxanthine incorporation; assay type: functional, organism-based

Row | SMILES | IC50 [nM]
16 | C[C@@H]1CC[C@H]2[C@@H](C)C(=O)O[C@@H]3O[C@@]4(C)CC[C@@H]1[C@]32OO4 [ARTEMISININ] | 62.3

test system: Plasmodium falciparum; test: Antimalarial activity against Plasmodium falciparum D10 clone M1 harboring pfATP6 L263 mutant assessed as inhibition of [3H]hypoxanthine incorporation; assay type: functional, organism-based

Row | SMILES | IC50 [nM]
17 | C[C@@H]1CC[C@H]2[C@@H](C)C(=O)O[C@@H]3O[C@@]4(C)CC[C@@H]1[C@]32OO4 [ARTEMISININ] | 51.6

test system: Plasmodium falciparum; test: Antimalarial activity against Plasmodium falciparum D10 clone M3 assessed as inhibition of [3H]hypoxanthine incorporation; assay type: functional, organism-based

Row | SMILES | IC50 [nM]
18 | C[C@@H]1CC[C@H]2[C@@H](C)C(=O)O[C@@H]3O[C@@]4(C)CC[C@@H]1[C@]32OO4 [ARTEMISININ] | 36.8

test system: Plasmodium falciparum; test: Antimalarial activity against Plasmodium falciparum 7G8 clone M1 assessed as inhibition of [3H]hypoxanthine incorporation; assay type: functional, organism-based

Row | SMILES | IC50 [nM]
19 | C[C@@H]1CC[C@H]2[C@@H](C)C(=O)O[C@@H]3O[C@@]4(C)CC[C@@H]1[C@]32OO4 [ARTEMISININ] | 25.2
